Each structure is given as a SMILES string. Numbering of substitutions follows the chain as printed. pIC50, pKd: −log10 of the molar value. Like-named read-outs stand apart in the source and are kept apart here.

Assay [1] has as its target T1, type l K+ channel (human) (Homo sapiens, UniProt P48547).
T1 construct: Native channels; endogenous in cells; host or cells: Louckes human B cell lymphoma line
T1 sequence (P48547 1-511): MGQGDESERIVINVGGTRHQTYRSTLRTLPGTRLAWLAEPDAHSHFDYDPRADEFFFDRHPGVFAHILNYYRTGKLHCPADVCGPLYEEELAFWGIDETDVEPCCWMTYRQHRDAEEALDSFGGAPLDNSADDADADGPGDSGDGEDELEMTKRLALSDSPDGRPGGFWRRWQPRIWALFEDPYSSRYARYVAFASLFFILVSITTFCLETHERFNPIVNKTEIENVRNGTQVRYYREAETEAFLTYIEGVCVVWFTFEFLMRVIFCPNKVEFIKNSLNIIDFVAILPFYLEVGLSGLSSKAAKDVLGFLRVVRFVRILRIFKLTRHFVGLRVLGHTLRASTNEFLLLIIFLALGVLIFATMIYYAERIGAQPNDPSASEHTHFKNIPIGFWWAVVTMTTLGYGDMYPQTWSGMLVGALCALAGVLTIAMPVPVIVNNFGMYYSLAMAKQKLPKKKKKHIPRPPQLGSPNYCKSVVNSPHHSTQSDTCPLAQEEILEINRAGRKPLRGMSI
Kind of assay: Patch-clamp pharmacology of type l K+ channels in human Louckes lymphoma cells. The format is cell-based. On the procedure: For the two-electrode voltage-clamp experiments, cells were bathed in oocyte Ringer solution containing 96mM NaCl, 2 mM KCl, 1.8 mM CaCl2, 1 mM MgCl2, 5 mM N-2-hydroxyethylpiperazine-N'-2-ethanesulfonic acid (HEPES), and adjusted to pH 7.5 with NaOH. The pipette solution was 3 M KCl. Patch-clamp experiments were carried out under identical conditions in oocytes and in T cells, using a mammalian Ringer solution containing 160 mM NaCl, 4.5 mM KCl, 2 mM CaCl2,1 mM MgCl2, 5 mM HEPES, and adjusted to pH 7.4 with NaOH and a total osmolarity of 290-320 mosm/kg. Internal (pipette) solutions contained: 140 mM KF, 2 mM MgCl2, 1 mM CaCl2, 5mM HEPES, 11 mM K2 -ethylene glycol-bis(β-aminoethylether)N,N,N',N'-tetraacetic acid (EGTA). CTX was purchased from Latoxan (IBF-Biotechnics, Inc., Columbia, Md.).
(§1) The patch-clamp amplifier (List L/M-EPC 7, Adams and List Associates, Ltd., Great Neck, N.Y.) was used in the voltage-clamp mode without series resistance compensation. Patchclamp electrodes were pulled from Accu-fill 90 Micropets (Becton, Dickinson & Co., Parsippany, N.J.) in three stages, coated with Sylgard (Dow Corning Corp., Midland, Mich.) and fire-polished to resistances, measured in the bath, of 2-7 M.OMEGA.. In all patch-clamp experiments, the command input of the patch-clamp amplifier was controlled by a PDP 11/73 computer via a digital-analog converter, and membrane currents were recorded at a bandwidth of 2 kHz. The holding potential was adjusted in all experiments to E=-80 mV. Correction for capacitative currents was achieved by analog subtraction.
Type l Channels in a Human Lymphoma Line: The human B cell lymphoma line, Louckes, has been reported to express large numbers of type l K+ channels (Shapiro and DeCoursey, (1988) Biophys. J. 53, 550a). We have confirmed that Louckes cells display a K+ channel with gating kinetics and pharmacological sensitivities indistinguishable from the type l K+ channels of mouse T cells (Table I and II). Because Louckes is a human cell line, it should be possible to compare the Kv3.1 transcripts isolated from these cells with Kv3.1 transcripts isolated from mouse T cells.

The target in a further assay is mKv3.1a cDNA (NGK2). To be noted: data from Yokoyama, et al., 1989, cited from earlier work.
The next assay addresses rKv3.1 cDNA (Kv4). As to conditions: data from Luneau, et al., 1991; read-out: Blockers, Kd / half-blocking dose; cited from earlier work.
For the next assay, the target named is T2, mKv3.1b K+ channels (Mus musculus, UniProt P15388).
T2 construct: expressed in transfected cells; host or cells: Xenopus oocytes injected with mKv3.1b mRNA
T2 sequence (P15388 1-585 isoform P15388-3): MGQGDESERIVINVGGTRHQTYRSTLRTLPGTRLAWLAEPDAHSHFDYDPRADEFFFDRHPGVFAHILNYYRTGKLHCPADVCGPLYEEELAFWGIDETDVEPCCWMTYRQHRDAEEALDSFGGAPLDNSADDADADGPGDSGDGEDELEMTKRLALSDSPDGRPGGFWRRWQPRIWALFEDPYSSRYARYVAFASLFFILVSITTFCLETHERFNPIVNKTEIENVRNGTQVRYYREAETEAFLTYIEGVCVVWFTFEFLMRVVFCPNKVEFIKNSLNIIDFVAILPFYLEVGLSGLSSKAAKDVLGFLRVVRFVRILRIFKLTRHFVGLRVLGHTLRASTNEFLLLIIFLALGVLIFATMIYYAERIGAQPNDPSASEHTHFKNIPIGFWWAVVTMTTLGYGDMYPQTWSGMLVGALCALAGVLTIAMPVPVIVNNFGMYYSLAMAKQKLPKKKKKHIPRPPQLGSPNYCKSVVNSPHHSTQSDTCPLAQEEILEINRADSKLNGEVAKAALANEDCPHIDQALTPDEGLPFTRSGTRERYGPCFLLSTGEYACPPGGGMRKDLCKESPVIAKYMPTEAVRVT
Kind of assay: cell-based. The format is cell-based. On the procedure:
For transcription, the plasmid was linearized by digestion with SacI in the polylinker.
All experiments were done at room temperature (22°-26°C.).
(§2) The pipette solution was 3 M KCl. […] CTX was purchased from Latoxan (IBF-Biotechnics, Inc., Columbia, Md.).
as §1
Mouse Kv3.1b Expression in Oocytes: Xenopus oocytes express a high density of voltage-activated K+ channels following injection of mKv3.1b mRNA. […] Single channel recordings were done on outside-out patches from these oocytes, whereas gating and inactivation kinetics and pharmacological sensitivities were determined using outside-out patches of oocyte membrane injected with a 10 times more concentrated mRNA solution (50 nl of 0.1 μg/μ^1 mRNA).

In assay [2] the target is T3, type n K+ channel (human) (Homo sapiens, UniProt P22001).
T3 construct: Native channels; endogenous in cells; host or cells: human T cells
Kind of assay: Patch-clamp pharmacology of type n K+ channels in human T cells. The format is cell-based. As to conditions: for pKd: data from this paper.
Source text: as §2, §1
For orientation: Patch clamp records ionic current or voltage across a cell membrane.

In assay [3] the target is T4, type n K+ channel (mouse) (Mus musculus, UniProt P16390).
T4 construct: Native channels; endogenous in cells; host or cells: mouse T cells
The experiment in a line: Patch-clamp pharmacology of type n K+ channels in mouse T cells. The format is cell-based. On the procedure: (§3) A gigohm seal patch-clamp technique was employed [Hamill, et al., Pflugers Arch. […] Cells were separated and stained as described infra. Maximum K^+ conductances (gk) Of CD4^- CD8^- Thy-l.2^+ T cells were determined from the maximum peak K^+ current elicited at +40 mV (holding potential -80 mV), assuming a reversal potential for K^+ of -80 mV. All experiments were done at room temperature (22° to 26° C.). The cells under investigation were bathed in Ringer solution (in mM): 160 NaCl, 4.5 KCl, 2 MgCl2, 1 CaCl2, 2 MgCl2, and 10 K-HEPES (pH 7.4). […] Each point represents gk in one single cell except the ones with the bars that reflect the mean±SD of previously reported data. The data from C3H (n=12), C3H-lpr (n=22), C3H-gld (n=26), and MRL-lpr (n=31) are taken from Grissmer, et al., J. Immunol. […] Three types of voltage-gated K^+ channels (n, l, n') are expressed by murine T cells, which can be distinguished by electrophysiological and pharmacological criteria. DeCoursey, et al., J. Gen.
(§4) K^+ channels were identified on the basis of their inactivation properties, channel closing kinetics, and sensitivity to block by tetraethylammonium (TEA). Typically type n K^+ channels are use-dependent, i.e., show cumulative inactivation by repetitive depolarizing pulses. Use dependence was determined by measuring the decline in the size of the peak K^+ current elicited with one per second repetitive depolarizing pulses of 200 ms duration.
(§5) (5) Electrophysiology: After phenotypic identification by epifluorescence microscopy, single T cells were patch-clamped at room temperature (22° to 26° C).
(§6) Solutions: The cells under investigation were bathed in normal mammalian Ringer solution containing (in mM): 160 NaCl, 4.5 KCl, 2 MgCl2, 1CaCl2, and 5 Na-HEPES (pH 7.4). […] In Ringer solutions containing tetraethylammonium chloride (TEA^+), NaCl was replaced by the appropriate TEA^+ concentrations keeping the osmolarity constant. The bath solution could be changed during recordings by bath perfusion.

In assay [4] the target is T5, type l K+ channel (mouse) (Mus musculus, UniProt P15388).
T5 construct: Native channels; endogenous in cells; host or cells: mouse T cells (CD4-CD8- T cells of autoimmune strains such as MRL-lpr; normal cytotoxic T cells)
T5 sequence (P15388 1-511): T1 sequence (P48547 1-511) with I265V
As to conditions: cited from earlier work; for effect on type l K+ channels, in words: MRL-lpr mice / mouse lymphocytes.

In a further assay the test system is type n channels. As to conditions: cited from earlier work.
The target in assay [5] is T5, type l K+ channel (mouse). Kind of assay: Patch-clamp pharmacology of type l K+ channels in mouse T cells. The format is cell-based. To be noted: for pKd: data from this paper. On the procedure: as §3, §4, §5, §6
Assay [6] addresses T3, type n K+ channel (human). To be noted: data from DeCoursey, et al., 1984, Sands, 1989, read-out: Blockers, Kd / half-blocking dose; cited from earlier work.
Assay [7] concerns the target T4, type n K+ channel (mouse). As to conditions: cited from earlier work.
The mark [8] stands for this setting: Louckes cells, read-out: Blockers, Kd / half-blocking dose.
The mark [9] stands for this setting: 20 mM Co^2+, data from this paper.
The mark [10] stands for this setting: 20 mM Co^2+, data from DeCoursey, et al., 1987.
[11] abbreviates: data from DeCoursey, et al., 1987, read-out: Blockers, Kd / half-blocking dose.
The mark [12] stands for this setting: second value, read-out: apparent dissociation constant Kd, from reduction of the peak current amplitude.
The mark [13] stands for this setting: first value, read-out: apparent dissociation constant Kd, from reduction of the integral under the current trace.

T4 sequence (P16390 whole entry): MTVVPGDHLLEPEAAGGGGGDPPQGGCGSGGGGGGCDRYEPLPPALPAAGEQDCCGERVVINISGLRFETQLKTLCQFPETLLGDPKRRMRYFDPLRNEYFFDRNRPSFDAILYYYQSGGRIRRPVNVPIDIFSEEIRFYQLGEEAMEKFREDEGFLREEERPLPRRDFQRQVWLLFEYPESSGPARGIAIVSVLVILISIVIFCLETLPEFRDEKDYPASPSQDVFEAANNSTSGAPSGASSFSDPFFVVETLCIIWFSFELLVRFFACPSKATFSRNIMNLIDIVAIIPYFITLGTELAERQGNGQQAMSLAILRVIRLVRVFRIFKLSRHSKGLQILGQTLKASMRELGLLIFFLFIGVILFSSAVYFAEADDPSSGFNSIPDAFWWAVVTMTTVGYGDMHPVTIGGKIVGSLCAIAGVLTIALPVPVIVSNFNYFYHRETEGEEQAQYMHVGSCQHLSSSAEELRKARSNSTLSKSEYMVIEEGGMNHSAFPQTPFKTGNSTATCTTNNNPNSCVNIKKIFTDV
T3 sequence (P22001 whole entry): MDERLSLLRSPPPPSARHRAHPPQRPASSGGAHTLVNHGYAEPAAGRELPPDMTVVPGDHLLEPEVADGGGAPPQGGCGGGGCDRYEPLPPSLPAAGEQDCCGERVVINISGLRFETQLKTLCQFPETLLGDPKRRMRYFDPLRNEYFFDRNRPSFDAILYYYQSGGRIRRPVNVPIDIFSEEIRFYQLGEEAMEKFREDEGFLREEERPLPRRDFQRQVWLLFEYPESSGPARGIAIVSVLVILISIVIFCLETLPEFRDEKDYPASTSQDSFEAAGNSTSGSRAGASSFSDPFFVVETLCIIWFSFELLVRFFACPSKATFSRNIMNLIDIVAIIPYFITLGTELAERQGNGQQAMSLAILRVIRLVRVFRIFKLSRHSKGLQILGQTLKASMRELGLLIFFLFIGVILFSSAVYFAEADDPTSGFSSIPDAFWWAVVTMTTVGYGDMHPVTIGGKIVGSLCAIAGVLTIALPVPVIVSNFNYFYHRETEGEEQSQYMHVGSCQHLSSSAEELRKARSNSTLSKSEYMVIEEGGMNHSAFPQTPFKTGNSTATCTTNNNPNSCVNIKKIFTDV

Consider `Nc1ccncc1` [4-AP, 4-aminopyridine], for which the pKd was above 4.00 in assay [1] (setting [8]); 3.22 on mKv3.1a cDNA (NGK2) (read-out: Blockers, Kd / half-blocking dose); 3.52 at rKv3.1 cDNA (Kv4).
On to `[Co+2]` [Co^2+], for which the “Effect of 20 mM Co^2+: block gK(Co)/gK” value is given as 0.75 on mKv3.1b K+ channels (20 mM Co^2+), 0.76 in assay [1] (20 mM Co^2+), 0.27 in [3] (setting [9]) and 0.9 in assay [4] (setting [10]). For the same compound, the “Effect of 20 mM Co^2+: shift ΔEn” value is 30 mV on mKv3.1b K+ channels (20 mM Co^2+), 30 mV in [1] (20 mM Co^2+), 40 mV in assay [3] (setting [9]) and 36 mV in assay [4] (setting [10]). In assay [2] (10 mM Co^2+ (*)), the “Effect of Co^2+: block gK(Co)/gK” value amounted to 0.2. The “Effect of Co^2+: shift ΔEn” value in assay [2] (10 mM Co^2+ (*)) was found to be 28 mV. Moreover, in assay [4], the “effect on type l K+ channels, in words” value is “strongly shift the voltage dependence of activation to more depolarized potentials, with minimal blocking”. Moreover, the “effect on type n channels, in words” value in the assay on type n channels is recorded as “strongly blocked”.
As for `[La+3]` [La3+], in assay [4], the “effect on type l K+ channels, in words” value is “strongly shift the voltage dependence of activation to more depolarized potentials, with minimal blocking”. Besides, the “effect on type n channels, in words” value in the assay on type n channels is reported as “strongly blocked”.
As for `CC[N+](CC)(CC)CC` [TEA, tetraethylammonium], the pKd on mKv3.1b K+ channels (outside-out oocyte patch, pulses to +40 mV from -80 mV, read-out: Blockers, Kd / half-blocking dose) is 3.82; in assay [1] (setting [8]), 3.92; in assay [4] (setting [11]), 4.10; in assay [4] (type l channels of murine T cells, read-out: KD / half-blocking dose of block by TEA, identification criterion) it was 4.00; in assay [6], 2.10; in assay [7] (setting [11]), 1.89 to 2.00. In [7] (type n channels of murine T cells, read-out: KD of block by TEA, identification criterion), the pKd was 2.10. The pIC50 in assay [1] (human Louckes lymphoma cells, read-out: half-blocking dose) is 4.00; in assay [5], 4.00; in assay [3] it was 2.00.
Take `C=C[C@H]1C[N@@]2CC[C@H]1C[C@H]2[C@H](O)c1ccnc2ccc(OC)cc12` [quinine]: the pKd at mKv3.1b K+ channels (200 ms steps from -80 mV to 40 mV, first value, read-out: apparent dissociation constant Kd, from reduction of the integral under the current trace) was 5.40; at mKv3.1b K+ channels (setting [12]) it was 4.70; in assay [1] (setting [13]) it was 5.00; in [1] (setting [12]), 4.70; in assay [5] (setting [13]), 5.00; in [5] (setting [12]), 4.72. The pKd was 4.89 in [2] (setting [13]); 4.62 in assay [2] (setting [12]); 3.00 on mKv3.1a cDNA (NGK2) (read-out: Blockers, quinine). For the same compound, on mKv3.1b K+ channels (oocytes), the “effect on mKv3.1b K+ currents, in words” value is “increased the apparent rate of mKv3.1b K+ current inactivation, and produced "use-dependent" block”.

(Values after patent publication US5397702A, “Assay for and treatment of autoimmune diseases” (priority 1990, dated 1995).)
